Measured values published in ChEMBL document CHEMBL4229568, “Discovery of natural flavonoids as activators of Nrf2-mediated defense system: Structure-activity relationship and inhibition of intracellular oxidative insults” (Bioorg Med Chem, 2018).
The source made the active and inactive calls. The calls are words filed in the database; no cut-off is given here.

These compounds were tested against T1, Nuclear factor erythroid 2-related factor 2 (Mus musculus) (UniProt Q60795) (assay: Activation of Nrf2 in mouse Heap1c1c7 cells assessed as induction of NAD(P)H:quinone reductase activity at 100 uM relative to control).
T1 sequence (whole entry): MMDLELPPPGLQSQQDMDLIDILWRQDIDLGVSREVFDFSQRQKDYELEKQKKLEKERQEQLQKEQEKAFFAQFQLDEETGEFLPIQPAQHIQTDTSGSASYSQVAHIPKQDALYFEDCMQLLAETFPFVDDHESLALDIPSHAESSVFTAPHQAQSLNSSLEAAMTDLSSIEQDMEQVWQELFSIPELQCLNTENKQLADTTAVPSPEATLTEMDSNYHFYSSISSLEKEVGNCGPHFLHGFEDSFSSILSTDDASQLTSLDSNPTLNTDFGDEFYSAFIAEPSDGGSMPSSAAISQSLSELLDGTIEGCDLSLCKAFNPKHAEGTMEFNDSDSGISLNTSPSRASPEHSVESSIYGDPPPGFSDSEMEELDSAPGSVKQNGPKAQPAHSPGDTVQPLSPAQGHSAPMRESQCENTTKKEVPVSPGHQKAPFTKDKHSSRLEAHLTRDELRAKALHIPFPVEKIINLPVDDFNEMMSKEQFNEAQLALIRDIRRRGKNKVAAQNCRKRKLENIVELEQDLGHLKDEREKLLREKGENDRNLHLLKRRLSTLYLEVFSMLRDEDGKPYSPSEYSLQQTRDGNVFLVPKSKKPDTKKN
Format: cell-based

Row | Compound | fold change (FC)
1 | CC(C)=CCc1c(-c2ccc(O)cc2O)oc2cc(O)cc(O)c2c1=O | 1.31
2 | O=C1c2c(O)cc(O)cc2OC(c2ccc(O)cc2)C1O (stereo unspecified) | 1.49
3 | C/C(=C/Cc1c(O)ccc(C(=O)/C=C/c2ccc(O)cc2)c1O)CO | 1.52
4 | C/C(=C\Cc1c(O)ccc(C(=O)/C=C/c2ccc(O)cc2)c1O)CO | 1.43
5 | CC(C)=CCc1c(O)cc2oc3c(c(=O)c2c1O)C(C=C(C)C)Oc1cc(O)ccc1-3 (stereo unspecified) | 1.31
6 | CC(C)=CCc1c(O)ccc2c1OC(c1ccc(O)cc1O)CC2=O (stereo unspecified) | 1.75
7 | COc1ccc([C@@H]2CC(=O)c3c(cc(OC)c(OC)c3OC)O2)cc1OC | 1.81
8 | CC(C)=CCc1c(O)ccc(C(=O)/C=C/c2ccc(O)cc2O)c1O | 1.34
9 | O=C1CC(c2ccc(O)c(O)c2)Oc2cc(O[C@@H]3O[C@H](CO)[C@@H](O)[C@H](O)[C@H]3O)cc(O)c21 (stereo partly specified) | 1.66
10 | C/C(=C\Cc1c(O)ccc(C(=O)/C=C/c2ccc(O)cc2O)c1O)CO | 1.61

What follows are compounds tested against T1, Nuclear factor erythroid 2-related factor 2 (Mus musculus) (assay: Activation of Nrf2 in mouse Heap1c1c7 cells assessed as induction of NAD(P)H:quinone reductase activity at 25 uM relative to control).
Format: cell-based

Row | Compound | fold change (FC)
11 | C/C(=C\Cc1c(O)ccc(C(=O)/C=C/c2ccc(O)cc2)c1O)CC(=O)/C=C/c1ccc(O)cc1 | 1.57
12 | C/C(=C/Cc1c(O)ccc(C(=O)/C=C/c2ccc(O)cc2O)c1O)CC(=O)/C=C/c1ccc(O)cc1 | 1.39
13 | CC(C)/C=C/c1c(O)cc2oc(-c3ccc(O)cc3O)c(/C=C/C(C)C)c(=O)c2c1O | 1.4
14 | COc1cc(/C=C/C(=O)C/C(C)=C/Cc2c(O)ccc(C(=O)/C=C/c3ccc(O)cc3)c2O)ccc1O | 1.49

Each compound was assayed against T1, Nuclear factor erythroid 2-related factor 2 (Mus musculus) (assay: Activation of Nrf2 in mouse Heap1c1c7 cells assessed as induction of NAD(P)H:quinone reductase activity at 50 uM relative to control).
Format: cell-based

Row | Compound | fold change (FC)
15 | O=C1C[C@@H](c2ccc(O)c(O)c2)Oc2cc(O)cc(O)c21 | 1.36
16 | COc1cc([C@@H]2CC(=O)c3c(O)cc(O)cc3O2)ccc1O | 1.51
17 | O=c1cc(-c2ccc(O)c(-c3c(O)cc(O)c4c(=O)cc(-c5ccc(O)cc5)oc34)c2)oc2cc(O)cc(O)c12 | 1.42
18 | O=c1c(O)c(-c2ccc(O)cc2)oc2cc(O)cc(O)c12 | 1.51
19 | CC(C)=CCc1c(O)ccc(C(=O)/C=C/c2ccc(O)cc2)c1O | 1.69
20 | CC(C)=CCc1c(O)cc2oc(-c3ccc(O)cc3O)c(/C=C/C(C)C)c(=O)c2c1O | 1.86

The compounds below were run against T1, Nuclear factor erythroid 2-related factor 2 (Mus musculus) (assay: Activation of Nrf2 in mouse Heap1c1c7 cells assessed as induction of NAD(P)H:quinone reductase activity at 12.5 uM relative to control).
Format: cell-based

Row | Compound | fold change (FC)
21 | C/C(=C/Cc1c(O)ccc(C(=O)/C=C/c2ccc(O)cc2)c1O)CC(=O)/C=C/c1ccc(O)cc1 | 1.31
22 | COc1cc(/C=C/C(=O)C/C(C)=C\Cc2c(O)ccc(C(=O)/C=C/c3ccc(O)cc3)c2O)ccc1O | 1.46
23 | O=c1c(O)c(-c2ccc(O)c(O)c2)oc2cc(O)cc(O)c12 | 1.36

These compounds were tested against T2, Nuclear factor erythroid 2-related factor 2 (Homo sapiens) (UniProt Q16236) (assay: Activation of Nrf2 in human BEAS2B cells assessed as upregulation of Nrf2 protein expression at 20 uM after 12 hrs by immunoblot analysis).
T2 sequence (whole entry): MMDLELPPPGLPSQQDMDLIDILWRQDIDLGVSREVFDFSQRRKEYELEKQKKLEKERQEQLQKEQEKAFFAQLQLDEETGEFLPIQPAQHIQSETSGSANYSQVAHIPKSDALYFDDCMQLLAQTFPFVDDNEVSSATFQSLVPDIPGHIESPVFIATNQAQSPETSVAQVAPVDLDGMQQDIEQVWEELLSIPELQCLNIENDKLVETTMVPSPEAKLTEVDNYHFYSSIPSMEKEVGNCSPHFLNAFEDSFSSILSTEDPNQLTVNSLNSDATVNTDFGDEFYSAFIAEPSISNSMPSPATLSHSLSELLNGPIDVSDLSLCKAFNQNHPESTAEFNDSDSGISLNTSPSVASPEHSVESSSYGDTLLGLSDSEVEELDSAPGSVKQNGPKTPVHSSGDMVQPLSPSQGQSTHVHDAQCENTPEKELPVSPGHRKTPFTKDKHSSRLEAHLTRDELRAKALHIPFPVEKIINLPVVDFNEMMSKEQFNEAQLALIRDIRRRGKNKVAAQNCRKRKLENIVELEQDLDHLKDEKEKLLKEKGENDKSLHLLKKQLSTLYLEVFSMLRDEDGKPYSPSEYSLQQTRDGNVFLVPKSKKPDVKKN
Format: cell-based

Row | Compound | Activity
24 | CC(C)(C)c1cc(O)ccc1O | Active

These compounds were tested against T2, Nuclear factor erythroid 2-related factor 2 (Homo sapiens) (assay: Activation of Nrf2 in human BEAS2B cells assessed as upregulation of NQO1 protein expression at 20 uM after 12 hrs by immunoblot analysis).
Format: cell-based

Row | Compound | Activity
25 | CC(C)(C)c1cc(O)ccc1O | Active

These compounds were tested against T2, Nuclear factor erythroid 2-related factor 2 (Homo sapiens) (assay: Activation of Nrf2 in human BEAS2B cells assessed as upregulation of gamma-GCS protein expression at 20 uM after 12 hrs by immunoblot analysis).
Format: cell-based

Row | Compound | Activity
26 | CC(C)(C)c1cc(O)ccc1O | Active
